According to ChEMBL document CHEMBL1165963, “Bryonolic acid: a large-scale isolation and evaluation of heme oxygenase 1 expression in activated macrophages” (2010):
Calls of active or inactive are those of the source. The rule behind the calls is not given here.

Assays:
RAW264.7 [1] = assay: Immunomodulatory effect in LPS-stimulated mouse RAW264.7 cells assessed as increase in heme oxygenase 1 expression at 50 uM after 24 hrs by Western blot relative to untreated control; format: functional
RAW264.7 [2] = assay: Effect on COX2 expression in mouse RAW264.7 cells after 24 hrs by Western blot; format: functional, cell-based
RAW264.7 [3] = assay: Immunomodulatory effect in LPS-stimulated mouse RAW264.7 cells assessed as increase in heme oxygenase 1 expression after 24 hrs by Western blot; format: functional, cell-based
RAW264.7 [4] = assay: Immunomodulatory effect in LPS-stimulated mouse RAW264.7 cells assessed as increase in heme oxygenase 1 expression at 100 uM after 24 hrs by Western blot relative to LPS; format: functional
RAW264.7 [5] = assay: Immunomodulatory effect in LPS-stimulated mouse RAW264.7 cells assessed as increase in heme oxygenase 1 expression at 100 uM after 24 hrs by Western blot relative to untreated control; format: functional
RAW264.7 [6] = assay: Effect on iNOS expression in mouse RAW264.7 cells after 24 hrs by Western blot; format: functional, cell-based
RAW264.7 [7] = assay: Immunomodulatory effect in LPS-stimulated mouse RAW264.7 cells assessed as increase in heme oxygenase 1 expression at 50 uM after 24 hrs by Western blot relative to LPS; format: functional

With `CC1(C)[C@@H](O)CC[C@]2(C)C3=C(CC[C@@H]12)[C@@]1(C)CC[C@@]2(C)CC[C@@](C)(C(=O)O)C[C@H]2[C@]1(C)CC3` [BRYONOLIC ACID] the “fold change (FC)” value (RAW264.7 [1]) was 13, the Activity (RAW264.7 [2]) was “inactive” and the Activity (RAW264.7 [3]) was “Dose-dependent effect”. The “fold change (FC)” value (RAW264.7 [4]) was 14, the “fold change (FC)” value (RAW264.7 [5]) was 55 and the Activity (RAW264.7 [6]) was “inactive”. The “fold change (FC)” value (RAW264.7 [7]) was 3.3.
